# Key:
# whole virus = assay: Serum IgG ELISA against whole virus in immunized mice; format: in vivo; settings: archived murine serum samples
# KLH = assay: Anti-KLH serum IgG ELISA in immunized mice; format: in vivo; settings: archived murine serum samples
# influenza A/PR/8/34 = format: in vivo, BALB/c mice; settings: lethal challenge with influenza A/PR/8/34
substance,measurement,setting,value
keyhole limpet hemocyanin [KLH],average IgG titer against whole virus,whole virus,800
same,average anti-KLH IgG titer,KLH,"819,000"
same,outcome following lethal challenge,influenza A/PR/8/34,no benefit over naives

# Source: patent US9709558B2, “Compound arrays for sample profiling” (priority 2009, dated 2017)
